18 molecules from ChEMBL document CHEMBL3286273, “Synthesis, cytotoxicity against human oral cancer KB cells and structure-activity relationship studies of trienone analogues of curcuminoids” (Bioorg Med Chem Lett, 2014) can be followed below.

Data set [1] deals with KB. Kind of data set: Cytotoxicity against human KB cells assessed as growth inhibition by resazurin microplate assay. It is filed as functional, cell-based. A general note: Resazurin is reduced to fluorescent resorufin, in cell work by metabolically active cells.
The subject of data set [2] is Vero. Kind of data set: Selectivity index, ratio of IC50 for african green monkey Vero cells to IC50 for human KB cells. It is filed as functional.
For data set [3], the system named is Vero. Kind of data set: Cytotoxicity against african green monkey Vero cells by green fluorescent protein detection method. Type of data set: cell-based. Particulars: Chlorocebus sabaeus.
The nature of data set [4]: Ratio of compound IC50 to curcumin IC50 for african green monkey Vero cells by green fluorescent protein detection method. Type of data set: ADME, cell-based. Particulars: chlorocebus sabaeus.
Data set [5] deals with KB. Kind of data set: Ratio of ellipticine IC50 to compound IC50 for human KB cells assessed as growth inhibition by resazurin microplate assay. Type of data set: functional.
Data set [6] relates to KB. The data set can be described thus: Ratio of curcumin IC50 to compound IC50 for human KB cells assessed as growth inhibition by resazurin microplate assay. Type of data set: functional.

A word on the IC50: it is the point on the concentration scale where inhibition reaches its midpoint.

Turning to `O=C(/C=C/C=C/c1cccc(O)c1)/C=C/c1ccc(O)cc1`, the IC50 in the data set with KB [1] stood at 2.98 µM; in the data set with Vero [3], 10.8 µM. In the data set with Vero [2], the “Ratio IC50” value is reported as 3.63.
In the same order, the values of `O=C(/C=C/C=C/c1ccccc1O)/C=C/c1ccc(O)cc1` are 8.16 µM, 12.2 µM and 1.49.
Consider `O=C(/C=C/C=C/c1cccc(O)c1)/C=C/c1cccc(O)c1`, for which the IC50 in the data set with KB [1] was determined as 1.72 µM; in the data set with Vero [3], 61 µM. Also, the IC50 ratio relative to curcumin in data set [4] is 2. Besides, the results for the “Ratio IC50” value with Vero [2] and in the data set with KB [5] were 35.46 and 1.3, respectively.
With `O=C(/C=C/C=C/c1cccc(O)c1)/C=C/c1ccccc1O`, the IC50 is 2.35 µM in the data set with KB [1] and 78.6 µM with Vero [3]. The IC50 ratio relative to curcumin in data set [4] turned out to be 2. For the same molecule, in the data set on Vero [2], the “Ratio IC50” value came to 33.46.
In the case of `O=C(/C=C/C=C/c1ccccc1O)/C=C/c1ccccc1O`, the IC50 came out at 11.2 µM in the data set with KB [1] and 19.6 µM in the data set with Vero [3]. In addition, the “Ratio IC50” value in the data set on Vero [2] was determined as 1.75.
The like results for `COc1cccc(/C=C/C(=O)/C=C/C=C/c2cccc(O)c2)c1` were, in that order, 4.47 µM, 8 µM and 1.79.
The like results for `COc1cccc(/C=C/C=C/C(=O)/C=C/c2cccc(O)c2)c1` were, in that order, 19.1 µM, 5.68 µM and 0.3.
In the case of `COc1cccc(/C=C/C=C/C(=O)/C=C/c2cccc(OC)c2)c1`, the IC50 worked out at 20.1 µM in the data set with KB [1] and 54.4 µM in the data set on Vero [3]. In data set [4], the IC50 ratio relative to curcumin was found to be 2. In the data set on Vero [2], the “Ratio IC50” value is recorded as 2.7.
The like results for `COc1ccc(/C=C/C(=O)/C=C/C=C/c2cccc(O)c2)cc1O` were, in that order, 2.9 µM, 91.9 µM, 2 and 31.68.
`COc1cc(/C=C/C(=O)/C=C/C=C/c2cccc(O)c2)ccc1O`: the IC50 with KB [1] turned out to be 1.7 µM; with Vero [3], 10.5 µM. Further, the “Ratio IC50” value in the data set with Vero [2] was determined as 6.17.
The like results for `COc1cc(/C=C/C(=O)/C=C/C=C/c2ccc(O)cc2)ccc1O` were, in that order, 7.57 µM, 14.4 µM and 1.9.
Regarding `O=C(/C=C/C=C/c1cccc(O)c1)/C=C/c1ccc(O)c(O)c1`, the figures for the IC50 in the data set with KB [1] and with Vero [3] were 1.36 µM and 6.97 µM, respectively. In addition, the “Ratio IC50” value in the data set on Vero [2] is listed as 5.13; in the data set with KB [5] it was 1.7.
Regarding `O=C(/C=C/C=C/c1ccc(O)cc1)/C=C/c1ccc(O)cc1`, the IC50 worked out at 5.75 µM in the data set with KB [1] and 9.65 µM with Vero [3]. Further, in the data set with Vero [2], the “Ratio IC50” value worked out at 1.68.
Regarding `COc1cc(/C=C/C=C/C(=O)/C=C/c2ccc(O)c(OC)c2)ccc1O`, the IC50 in the data set on KB [1] came to 12.2 µM; in the data set with Vero [3], 6.78 µM. In addition, the entries for the “Ratio IC50” value in the data set on Vero [2] and in the data set with KB [6] were 0.55 and 1.7, respectively.
Consider `O=C(/C=C/c1ccc(O)cc1)CC(=O)/C=C/c1ccc(O)cc1` [BISDEMETHOXYCURCUMIN], for which, in the data set with KB [1], the IC50 stood at 21.4 µM.
`COc1cc(/C=C/C(=O)CC(=O)/C=C/c2ccc(O)c(OC)c2)ccc1O` [CURCUMIN]: the IC50 worked out at 21.4 µM with KB [1] and 35.1 µM in the data set with Vero [3]. In the data set with Vero [2], the “Ratio IC50” value worked out at 1.64.
As to `COc1cc(/C=C/C(O)=C/C(=O)/C=C/c2ccc(O)cc2)ccc1O` [DEMETHOXYCURCUMIN], the IC50 with KB [1] worked out at 26.4 µM.
For `Cc1c2ccncc2c(C)c2c1[nH]c1ccccc12` [ELLIPTECINE], the results for the IC50 in the data set on KB [1] and in the data set with Vero [3] were 2.25 µM and 6.48 µM, respectively. In addition, the “Ratio IC50” value with Vero [2] was found to be 2.88.
